Values quoted from earlier work in US20030185915A1, “Synergetic composition for the treatment of psoriasis and other skin disorders and method therefor” (priority 2002, published 2003).

Tested on: psoriatic arthritis
Settings: usually within four to eight weeks

SMILES: O=C(O)c1cc(/N=N/c2ccc(S(=O)(=O)Nc3ccccn3)cc2)ccc1O [Sulfasalazine]
- fraction of PA patients responding rapidly: Approximately one-third
